Results as given in patent US7473683B2, “Nonpolar thymidine analogs” (The Board of Trustees of the Leland Stanford Junior …, priority 2005, dated 2009).

Experiments:
[1] = tested on: self-complementary strands (5′-XCGCGCG); assay: dangling end thermal denaturation studies (base stacking) with self-complementary strands; assay type: physicochemical; settings: for ΔG°37 (van't Hoff) / ΔH° (van't Hoff) / ΔS° (van't Hoff) / ΔΔG° stacking per base / Tm / ΔG°37 (fits) / ΔTm: dangling residue X in 5′-XCGCGCG; for Tm: 5.0 μM DNA strand, 1M NaCl, 10 mM phosphate buffer (pH 7.0), 0.1 mM EDTA, 280 nm; for ΔG°37 (fits): curve fits; for ΔTm: versus duplex with no dangling residue
Experimental: (§1) Thermal Denaturation Studies. After the samples were prepared in melting buffer (1M NaCl, 10 mM phosphate buffer (pH 7.0) with 0.1 mM EDTA), they were heated to 95° C. and allowed to slowly cool at a rate of 1° C./min to 5° C. The melting studies were carried out in Teflon-stoppered 1 cm path length quartz cells on a Varian Cary 1 UV-vis spectophotometer equipped with thermoprogrammer. Absorbance was monitored at 280 nm for stacking and at 260 nm for base pairing. […] The data were analyzed by the melt curve processing program, MeltWin v. 3.0. Melting temperatures (Tm) were determined by computer-fit of the first derivative of absorbance with respect to 1/T. Uncertainty in Tm is estimated at ±0.5° C. based on repetitions of experiments. Free-energy values were derived by two methods: (1) computer-fitting the denaturation data with an algorithm employing linear sloping baselines, using the two-state approximation for melting. Fits were excellent, with χ^−2 values of 10^−6 or better. (2) Van't Hoff thermodynamic parameters were derived from linear plots of 1/Tm vs In[CT] by measuring Tm as a function of concentration.
Sequence Design. We incorporated all five phosphoramidites into three new sequence contexts each for further study of pairing and stacking properties. The first is a self-complementary sequence designed to form a hexamer duplex, with the nonnatural base analogue overhanging (dangling) at the 5′ ends (Table 2). This same sequence context has been used previously in several studies of DNA base stacking. The second and third contexts comprise a pair of 12mer sequences that form duplexes with well-behaved two-state behavior. One strand is pyrimidine-rich, while the other is purine-rich; we substituted each analogue at a central position of each strand to test two widely varied sequence contexts for pairing effects.
Base Stacking. DNA base stacking stability has been correlated with the size of compounds when mono-, bi-, tri-, and tetra-cyclic base analogues were compared. To test this with the present series, which varies in size by a smaller amount, we examined the short self-complementary oligonucleotides by thermal denaturation experiments. The self-complementary duplexes contained the modified nucleosides as a 5′ overhanging base.

[2] = tested on: DNA Pol I (Klenow fragment, exo-); assay: steady-state kinetics of single nucleotide insertions, thymidine analogues in the template; assay type: biochemical, E. coli; design: efficiency: unit not given here; settings: for rel. efficiency: relative to insertion of dATP opposite T
Experimental: In vitro steady-state kinetics. As polymerase substrates we used 28 mer/23 mer template-primer duplexes having the sequence (5′-ACT GXT CTCCCTATAGTGAGTCGTATTA [SEQ ID NO:1])·(5′-TAATACGACTCACTATAGGGAGA [SEQ ID NO:2]). Kinetics were measured at 37° C. in a buffer containing 10 mM Mg^2+. The primer was 5′ end-labeled and was extended by the polymerase in the presence of a single dNTP species over varied concentration and time. Products of single nucleotide insertions were resolved from unreacted primer by 20% denaturing gel electrophoresis, and were quantitated by autoradiography. Details of the kinetics experiments are given in the Supporting Data.
We chose DNA polymerase I (Klenow fragment, exonuclease-deficient) as an ideal candidate for initial study, as it is enzymatically well-characterized among replicative enzymes, and yet is relatively small and acts as a single subunit. We carried out kinetics studies of single nucleotide insertions in the steady state, using a gel electrophoresis-based assay.
Data for single nucleotide insertion kinetics in the steady-state. The enzyme was the Klenow fragment of DNA pol I from E. coli (exonuclease deficient). Methods are as described above.

[3] = tested on: normal and bypass (SOS-induced) polymerases in E. coli; assay: bacterial replication assay: bypass efficiency and fidelity of analogs in single-stranded M13 vector passaged through E. coli; assay type: cell-based; settings: for difference between the match and mismatch efficiency, increase in cells expressing induced bypass polymerases: SOS-induced bypass polymerases; for single-base deletions: diminished when bypass polymerases were induced
From the text: Bacterial replication assay. The assay for bypass efficiency fidelity is briefly described in the text.
To ascertain the influence of sub-Angstrom size increases on the template coding properties of the T analogs in vivo, we ligated oligonucleotides containing each analog into a single-stranded M13 vector, which were then passaged through E. coli and scored for bypass efficiency and mutagenesis (fidelity) as described. We chose E. coli deficient in AlkB to eliminate the possibility of metabolization of the H analog, which was subsequently found to have no influence on the results when compared with AlkB-proficient cells. Bypass experiments shown in FIG. 7 were performed in a competitive manner, and efficiencies were evaluated by PCR-based quantitation of successfully replicated progeny DNA. SOS-induction of bypass polymerases by prior irradiation of E. coli with ultraviolet light increased trans-analog synthesis approximately 2-fold for all thymine analogs. […] It is noteworthy that the difference between the match and mismatch efficiency increased in cells expressing induced bypass polymerases: L (0.2), B (8.0), I (17.4), implying higher fidelity for the larger isosteres for bypass polymerases, which may contain larger or looser active sites.

[4] = tested on: 12-base pair duplex 5′-CTTTTCXTTCTT / 3′-GAAAAGXAAGAA; assay: thermal denaturation, base pairing near the center of a 12-base pair duplex; assay type: physicochemical; settings: pyrimidine- or purine-rich strand, compared to T
Experimental: as §1
Sequence Design. We incorporated all five phosphoramidites into three new sequence contexts each for further study of pairing and stacking properties. […]

[5] = insertion of dATP opposite template base, 37° C.
[6] = insertion of dATP opposite template base, 37° C., 10 mM MgCl2, pH 7.5, normalized to lowest enzyme concentration
[7] = insertion of dATP opposite template base
[8] = insertion of dCTP opposite template base, 37° C.
[9] = insertion of dCTP opposite template base, 37° C., 10 mM MgCl2, pH 7.5, normalized to lowest enzyme concentration
[10] = insertion of dCTP opposite template base
[11] = insertion of dGTP opposite template base, 37° C.
[12] = insertion of dGTP opposite template base, 37° C., 10 mM MgCl2, pH 7.5, normalized to lowest enzyme concentration
[13] = insertion of dGTP opposite template base
[14] = insertion of dTTP opposite template base, 37° C.
[15] = insertion of dTTP opposite template base, 37° C., 10 mM MgCl2, pH 7.5, normalized to lowest enzyme concentration
[16] = insertion of dTTP opposite template base
[17] = Example 4: incorporating dATP opposite template thymidine analog

Compound	ΔG°37 (van't Hoff) [1] [kcal/mol]	ΔH° (van't Hoff) [1] [kcal/mol]	ΔS° (van't Hoff) [1] [cal/K · mol]	ΔΔG° stacking per base [1] [kcal/mol]	Tm [1] [°C]	ΔG°37 (fits) [1] [kcal/mol]	ΔTm [1] [°C]	Km [2, 5] [µM]	Vmax [2, 6] [% · m in^−1]	rel. efficiency [2, 7]	Km [2, 8] [µM]	Vmax [2, 9] [% · m in^−1]	rel. efficiency [2, 10]	Km [2, 11] [µM]	Vmax [2, 12] [% · m in^−1]	rel. efficiency [2, 13]	Km [2, 14] [µM]	Vmax [2, 15] [% · m in^−1]	rel. efficiency [2, 16]	difference between the match and mismatch efficiency, increase in cells expressing induced bypass polymerases ([3]; E. coli)	further results
Cc1ccc(Br)cc1Br [B, 2,4-dibromotoluene]	-10.8 ± 0.1	-62.0 ± 2.1	−165 ± 7	1.50	54.3	-10.2 ± 0.0	15.7	21 ± 5	12 ± 1	4.4 × 10^−2	79 ± 33	0.038 ± 0.005	3.7 × 10^−5	220 ± 100	0.023 ± 0.005	7.7 × 10^−6	37 ± 12	0.20 ± 0.03	4.2 × 10^−4	8.0	
Cc1ccc(I)cc1I [I, 2,4-diiodotoluene]	-10.4 ± 0.2	-55.7 ± 4.4	−146 ± 14	1.30	53.8	-10.2 ± 0.1	15.2	26 ± 11	1.3 ± 0.2	3.8 × 10^−3	20 ± 8	0.036 ± 0.001	1.4 × 10^−4	58 ± 18	0.017 ± 0.001	2.2 × 10^−5	48 ± 39	0.085 ± 0.037	1.4 × 10^−4	17.4	pairing stability opposite natural bases [4]: least destabilizing; single-base deletions ([3]; E. coli): evident
2,4-diHydrogentoluene	-9.7 ± 0.1	-55.4 ± 2.0	−147 ± 6	0.95	49.7	-9.7 ± 0.0	11.1	20 ± 2	0.90 ± 0.18	3.5 × 10^−3	100 ± 60	0.031 ± 0.006	2.4 × 10^−5	600 ± 210	0.025 ± 0.007	3.2 × 10^−6	61 ± 37	0.062 ± 0.022	7.7 × 10^−5		stabilization of the duplex by 5′ overhanging base (stacking) ([1]; compared with natural thymidine in the same position): least stabilizing of the series; single-base deletions ([3]; E. coli): evident
difluorotoluene [reference compound]	-10.1 ± 0.0	-54.5 ± 0.9	−143 ± 3	1.15	52.4	-10.1 ± 0.0	13.8	9.4 ± 2.9	24 ± 3	2.0 × 10^−1	33 ± 11	0.071 ± 0.011	1.7 × 10^−4	36 ± 12	0.0071 ± 0.0008	1.5 × 10^−5	22 ± 13	0.12 ± 0.03	4.2 × 10^−4		
Cc1c[nH]c(=O)[nH]c1=O [T, thymine, reference compound]	-9.1 ± 0.1	-54.4 ± 4.1	−146 ± 13	0.65	46.0	-9.1 ± 0.1	7.4	1.9 ± 0.5	24 ± 1	1	46 ± 28	0.022 ± 0.006	3.7 × 10^−5		0.41 ± 0.15	5.6 × 10^−4	38 ± 38	0.012 ± 0.004	2.5 × 10^−5		Km [2, 17]: 2.6 ± 0.75 µM; Vmax [2, 17]: 45.7931 ± 1.7743; efficiency [2, 17]: (1.86 ± 0.56) × 10^7; Rel. efficiency ([2]; Example 4: incorporating dATP opposite template thymidine analog, T template = 1): 1
Cc1ccc(Cl)cc1Cl [L, 2,4-dichlorotoluene]	-10.0 ± 0.1	-52.7 ± 1.2	−138 ± 4	1.10	52.3	-10.1 ± 0.0	13.7	3.3 ± 2.8	27 ± 5	6.3 × 10^−1	25 ± 13	0.021 ± 0.003	6.5 × 10^−5	190 ± 90	0.029 ± 0.007	1.2 × 10^−5	18 ± 18	0.13 ± 0.04	5.5 × 10^−4	0.2	replication bypass efficiency ([3]; E. coli, normal and bypass polymerases, competitive, PCR-based quantitation of progeny DNA): maximum bypass; replication fidelity in E. coli ([3]; normal and bypass polymerases): maximal in vivo fidelity
